Here are results for 3 compounds from patent US11530244B2, “Cyclic polypeptides for PCSK9 inhibition” (priority 2018, dated 2022).

What all share (assay type): binding
Experiment [1] deals with human PCSK9 / human LDLR EGFa domain interaction (Homo sapiens (Human), UniProt Q8NBP7). As to the kind of experiment: TR-FRET assay of inhibition of the PCSK9-LDLR protein-protein interaction. The following applies: TR-FRET, 20 nM human PCSK9, 20 nM human LDLR EGFa domain, 2 hours room temperature; read-out: IC50. The procedure, abridged:
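Half-maximal inhibitory concentrations came from 4-parameter fits of dose-response data. Proteins: biotinylated PCSK9, His-tagged LDLR EGFa, 20 nM each; labels 5 nM; 2 h, room temperature; buffer 50 mM HEPES, 150 mM NaCl, 5 mM CaCl2.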
(In TR-FRET formats the signal depends on donor and acceptor labels being close together.)

Experiment [2] has as its target T1, PCSK9 (Homo sapiens (Human), UniProt Q8NBP7). As to the kind of experiment: PCSK9 Alexa FRET Standard assay (displacement of AlexaFluor647 tagged cyclic peptide Reagent A). The following applies: PCSK9 Alexa FRET Standard assay, 0.5 nM PCSK9, 20 nM AF cyclic peptide Reagent A; read-out: IC50. The essentials:
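TR-FRET displacement: 0.5 nM biotinylated PCSK9 with 1.25 nM Strep-Eu and 20 nM AlexaFluor-tagged cyclic peptide (final) in 50 mM HEPES pH 7.4, 0.15 M NaCl, 5 mM CaCl2, 0.01% BSA, 0.01% P20, ≥2 h at room temperature. IC50 from sigmoidal fit, converted to Ki via peptide KD; falling Eu counts flagged false positives.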

The target in experiment [3] is T1, PCSK9. As to the kind of experiment: PCSK9 Alexa FRET Plus assay (displacement of AlexaFluor647 tagged cyclic peptide Reagent B). The following applies: Alexa FRET Plus, 0.5 nM PCSK9, 960 nM AF cyclic peptide Reagent B; read-out: IC50. The procedure, abridged: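 TR-FRET displacement with final 0.5 nM biotinylated PCSK9, 1.25 nM Strep-Eu and 960 nM AlexaFluor-tagged cyclic peptide in HEPES pH 7.4, NaCl, CaCl2, BSA, P20; ≥2 h at room temperature. IC50 from sigmoidal fit, converted to Ki using peptide KD. Falling europium counts flagged false positives.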

Starred links: 1 amine or outer side, 2 acyl side, 3 side chain; linkers in the order of their positions; H or OH if unused. Positions of bridges follow the written chain, without caps; N, C: chain ends. Non-standard residues stand in square brackets, D forms with d. Residues, ends and D or L forms follow the SMILES beside them. ξ: configuration not given here. NHCH2(1,3-C6H4)CH2CO = O=C(Cc1cccc(CN[*:1])c1)[*:2]; Trp(5-OH) = N[C@@H](Cc1c[nH]c2ccc(O)cc12)C(=O)O; Trp(5-F) = N[C@@H](Cc1c[nH]c2ccc(F)cc12)C(=O)O; mXylylene = c1cc(C[*:1])cc(C[*:2])c1; αMeP = C[C@@]1(C(=O)O)CCCN1; ξD = NC(CC(=O)O)C(=O)O; Mpa = O=C(O)CCS

Chain of human PCSK9 / human LDLR EGFa domain interaction (Q8NBP7 153-692): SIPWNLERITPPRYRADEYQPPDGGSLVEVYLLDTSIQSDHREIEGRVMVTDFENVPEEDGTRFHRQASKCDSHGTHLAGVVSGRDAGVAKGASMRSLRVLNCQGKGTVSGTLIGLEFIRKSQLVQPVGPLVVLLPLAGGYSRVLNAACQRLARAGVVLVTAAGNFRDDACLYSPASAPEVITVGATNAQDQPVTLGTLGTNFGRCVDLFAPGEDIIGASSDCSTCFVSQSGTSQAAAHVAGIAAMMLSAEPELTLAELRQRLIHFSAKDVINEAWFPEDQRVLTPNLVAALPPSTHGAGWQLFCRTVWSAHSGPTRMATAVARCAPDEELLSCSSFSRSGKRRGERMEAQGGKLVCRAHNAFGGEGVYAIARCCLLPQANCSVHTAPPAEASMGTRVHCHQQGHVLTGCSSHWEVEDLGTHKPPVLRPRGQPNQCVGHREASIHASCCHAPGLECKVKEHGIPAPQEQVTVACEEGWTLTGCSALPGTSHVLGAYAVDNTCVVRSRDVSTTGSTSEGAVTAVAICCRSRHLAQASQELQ
Chain of human PCSK9 / human LDLR EGFa domain interaction (Q8NBP7 31-152 partner): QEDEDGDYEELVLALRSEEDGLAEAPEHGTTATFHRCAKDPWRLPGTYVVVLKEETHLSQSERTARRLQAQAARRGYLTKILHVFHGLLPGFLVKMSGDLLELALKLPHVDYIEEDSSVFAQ
T1 sequence (Q8NBP7 153-692): as the sequence (Q8NBP7 153-692) above

The term IC50 denotes the point on the concentration scale where inhibition reaches its midpoint. With `C[C@@]12CCCN1C(=O)[C@H](Cc1ccc(O)cc1)NC(=O)[C@H](Cc1cnc[nH]1)NC(=O)[C@H](CC(=O)O)NC(=O)[C@H](Cc1c[nH]c3ccc(O)cc13)NC(=O)[C@H](Cc1c[nH]c3ccc(F)cc13)NC(=O)CNC(=O)[C@H](CCCCN)NC(=O)CCSCc1cccc(c1)CSC[C@@H](C(N)=O)NC2=O` [Compound 399] ([Mpa]KG[Trp(5-F)][Trp(5-OH)]DHY[αMeP]C-NH2; linker 1-10 via mXylylene), the IC50 was in the range of 0.1 to 100 nM in experiment [1], 0.11 to 100 nM in experiment [2] and 100 to 500 nM in experiment [3].

Regarding `COc1ccc(C[C@@H]2NC(=O)[C@H](Cc3cnc[nH]3)NC(=O)[C@H](CC(=O)O)NC(=O)[C@H](Cc3c[nH]c4ccc(F)cc34)NC(=O)[C@H](Cc3c[nH]c4ccc(F)cc34)NC(=O)[C@@H](C)NC(=O)Cc3cccc(c3)CNC(=O)CC(C(=O)O)NC(=O)[C@]3(C)CCCN3C2=O)cc1` (stereo partly drawn) [Compound 401] ([NHCH2(1,3-C6H4)CH2CO][dA][Trp(5-F)][Trp(5-F)]DHY(Me)[αMeP][ξD]-OH; lactam N-9), the IC50 was in the range of 0.1 to 100 nM in experiment [1], 0.11 to 100 nM in experiment [2] and 0.1 to 100 nM in experiment [3].

Take `COc1ccc(C[C@@H]2NC(=O)[C@@H]3CCCCC(=O)N[C@H]4C[C@@H](C(=O)N3)N(C4)C(=O)[C@H](Cc3c[nH]c4ccc(F)cc34)NC(=O)[C@H](Cc3c[nH]c4ccc(F)cc34)NC(=O)[C@@H](C)NC(=O)[C@H](CCCN=[N+]=[N-])NC(=O)CCSCc3cccc(c3)CCSCNC(=O)[C@]3(C)CCCN3C2=O)cc1` [Compound 520]: the results for the IC50 in experiment [1], in experiment [2] and in experiment [3] were 0.1 to 100 nM, 0.11 to 100 nM and 0.1 to 100 nM, respectively.
